Measured values taken from the NIST ThermoML archive (doi:10.1021/acs.jced.7b00092).

Conditions: Liquid, Frequency=8 MHz, Pulse-echo method

C[Si](C)(C)O[Si](C)(C)O[Si](C)(C)O[Si](C)(C)C [decamethyltetrasiloxane]
Conditions	speed of sound [m/s]
217.81 K, 2 kPa	1232
217.81 K, 1324 kPa	1238.8
217.85 K, 9419 kPa	1278.4
217.9 K, 19699 kPa	1325.2
217.99 K, 40255 kPa	1409.2
218.01 K, 60115 kPa	1481.3
218.09 K, 79712 kPa	1545.9
218.16 K, 98572 kPa	1603
218.24 K, 118233 kPa	1658.4
249.42 K, 119047 kPa	1575.5
249.53 K, 98950 kPa	1515.2
249.65 K, 80370 kPa	1454.9
249.74 K, 59554 kPa	1380.8
249.8 K, 19343 kPa	1208.7
249.8 K, 39384 kPa	1300.3
249.84 K, 1077 kPa	1110.1
249.84 K, 9240 kPa	1156.2
299.9 K, 16 kPa	925.67
299.92 K, 1080 kPa	933.63
299.94 K, 121 kPa	926.31
299.96 K, 958 kPa	932.76
299.98 K, 9659 kPa	994.25
300 K, 19671 kPa	1056.3
300 K, 60024 kPa	1252.4
300 K, 80266 kPa	1331.2
300 K, 99198 kPa	1397.7
300.01 K, 40202 kPa	1164.3
300.04 K, 119626 kPa	1463.1
349.87 K, 59744 kPa	1145.5
349.89 K, 9447 kPa	851.51
349.89 K, 99170 kPa	1302.5
349.89 K, 119296 kPa	1370.8
349.9 K, 19447 kPa	925.37
349.92 K, 80462 kPa	1232.5
349.93 K, 1369 kPa	780.56
349.93 K, 40092 kPa	1049.2
399.55 K, 120290 kPa	1300.1
399.6 K, 1077 kPa	636.31
399.6 K, 9691 kPa	731.33
399.67 K, 1234 kPa	638.18
399.67 K, 20055 kPa	820.52
399.69 K, 38533 kPa	945.04
399.69 K, 60934 kPa	1064.3
399.7 K, 81120 kPa	1154.3
399.7 K, 99014 kPa	1224.6
449.89 K, 9702 kPa	623.33
449.92 K, 19667 kPa	723.35
449.96 K, 40506 kPa	876.94
449.99 K, 59941 kPa	986.94
450.01 K, 80184 kPa	1082.5
450.03 K, 99670 kPa	1162.7
450.04 K, 119488 kPa	1235.4
450.05 K, 1060 kPa	502.02
499.61 K, 9979 kPa	534.61
499.67 K, 20291 kPa	650.54
499.69 K, 40057 kPa	807.98
499.72 K, 4164 kPa	442.17
499.72 K, 60022 kPa	927.39
499.75 K, 5168 kPa	460.32
499.75 K, 80169 kPa	1026.5
499.76 K, 1001 kPa	371.6
499.78 K, 3058 kPa	420.07
499.8 K, 99589 kPa	1109
499.82 K, 1926 kPa	395
499.89 K, 119374 kPa	1183.6

C[Si](C)(C)O[Si](C)(C)O[Si](C)(C)C [octamethyltrisiloxane]
Conditions	speed of sound [m/s]
299.61 K, 10196 kPa	986.47
299.62 K, 101 kPa	911.32
299.63 K, 502 kPa	914.41
299.64 K, 984 kPa	918.29
299.64 K, 1480 kPa	922.14
299.65 K, 2012 kPa	926.38
299.66 K, 3441 kPa	937.36
299.68 K, 20155 kPa	1050.3
299.69 K, 5923 kPa	955.8
299.71 K, 30179 kPa	1107.3
349.58 K, 3704 kPa	781
349.59 K, 2066 kPa	764.64
349.59 K, 10127 kPa	839.26
349.6 K, 1556 kPa	759.34
349.61 K, 6067 kPa	803.25
349.61 K, 20075 kPa	915.62
349.64 K, 29800 kPa	980.01
349.65 K, 1075 kPa	754.2
349.69 K, 558 kPa	748.58
349.91 K, 111 kPa	742.97
399.42 K, 29701 kPa	873.39
399.95 K, 2018 kPa	610.77
399.96 K, 508 kPa	588.68
399.96 K, 993 kPa	595.83
399.96 K, 1439 kPa	602.33
399.96 K, 3510 kPa	630.8
400.02 K, 9928 kPa	704.99
400.15 K, 19875 kPa	796.17
449.44 K, 23518 kPa	734.5
449.96 K, 1045 kPa	448.89
449.98 K, 1523 kPa	458.69
449.99 K, 492 kPa	436.7
450.01 K, 1994 kPa	468.09
450.05 K, 3497 kPa	495.73
450.09 K, 6009 kPa	536.6
450.14 K, 9983 kPa	591.45
450.22 K, 20246 kPa	701.94
498.94 K, 3487 kPa	373.05
498.96 K, 1989 kPa	328.83
499 K, 5834 kPa	424.21
499.02 K, 1521 kPa	313.47
499.02 K, 10178 kPa	498.23
499.04 K, 1000 kPa	292.6
499.05 K, 16859 kPa	585.07
549.67 K, 15312 kPa	492.6
549.74 K, 6653 kPa	340.31
549.79 K, 4484 kPa	279.71
549.8 K, 10050 kPa	411.61
549.84 K, 12528 kPa	452.26
